From patent US8486606B2, “Acrylate derivative, haloester derivative, polymer compound and photoresist composition” (Kuraray Co., Ltd., priority 2008, dated 2013)

Assay: Evaluation of solubility at 25° C. in organic solvent
Type: physicochemical
Experimental: A solubility of 2-methacryloyloxyacetoxy-4,5-oxathiatricyclo[4.2.1.0^3,7]nonane-5,5-dioxide obtained in Example 2 in tetrahydrofuran was measured according to the following operation.
1 g of a sample to be used for the evaluation of solubility was prepared. 1 g of an organic solvent described in Table 1 and the foregoing sample were mixed at 25° C., and the mixture was stirred at 25° C. for 10 minutes as it was. An insoluble matter was filtered out from the obtained mixed solution, and the organic solvent was distilled off from the filtrate. Subsequently, the residue was dried under reduced pressure for 5 hours, thereby obtaining the sample in the saturated solution. A mass of the subject sample was measured, and its solubility was calculated according to the following expression. Solubility(% by mass)=100×(Mass of the sample in the saturated solution)/(Mass of the saturated solution)
The experiment and evaluation of solubility were carried out in the same manner as in Example 7, except that in Example 7, the sample and the organic solvent were changed to those shown in Table 1 or Table 2.

[1] = organic solvent: Methyl ethyl ketone
[2] = organic solvent: Tetrahydrofuran

Compound	Solubility [1] [% by mass]	Solubility [2] [% by mass]
C=C(C)C(=O)OCC(=O)OC1C2CC3C1OS(=O)(=O)C3C2 (stereo not drawn) [Example 2, 2-methacryloyloxyacetoxy-4,5-oxathiatricyclo[4.2.1.0^3,7]nonane-5,5-dioxide]	45.5	48.1
C=C(C)C(=O)OCC(=O)OC1C2CC3C(O2)C1OS3(=O)=O (stereo not drawn) [Example 4, 5-methacryloyloxyacetoxy-3,7-dioxa-2-thiatricyclo[4.2.1.0^4,8]nonane-2,2-dioxide]	30.8	31.9
C=C(C)C(=O)OCC(=O)OC1C2CC3C(=O)OC1C3O2 (stereo not drawn) [reference compound]	4.2	7.8
